{
  "source": "patent US20050238580A1",
  "about": "(priority 2002, published 2005)",
  "key": {"intestinal lactase [1]": {"biological_target": "T1, intestinal lactase (Rattus norvegicus, UniProt Q02401)", "T1 construct": "hydrolysis of the 4-galactosyl-xylose administered is detected by the action of intestinal lactase; from tissue; host or cells: small-intestinal mucous membrane of living unweaned rats (in vivo); activity also measured post mortem in mucosa homogenate", "T1 sequence (Q02401 868-1928)": "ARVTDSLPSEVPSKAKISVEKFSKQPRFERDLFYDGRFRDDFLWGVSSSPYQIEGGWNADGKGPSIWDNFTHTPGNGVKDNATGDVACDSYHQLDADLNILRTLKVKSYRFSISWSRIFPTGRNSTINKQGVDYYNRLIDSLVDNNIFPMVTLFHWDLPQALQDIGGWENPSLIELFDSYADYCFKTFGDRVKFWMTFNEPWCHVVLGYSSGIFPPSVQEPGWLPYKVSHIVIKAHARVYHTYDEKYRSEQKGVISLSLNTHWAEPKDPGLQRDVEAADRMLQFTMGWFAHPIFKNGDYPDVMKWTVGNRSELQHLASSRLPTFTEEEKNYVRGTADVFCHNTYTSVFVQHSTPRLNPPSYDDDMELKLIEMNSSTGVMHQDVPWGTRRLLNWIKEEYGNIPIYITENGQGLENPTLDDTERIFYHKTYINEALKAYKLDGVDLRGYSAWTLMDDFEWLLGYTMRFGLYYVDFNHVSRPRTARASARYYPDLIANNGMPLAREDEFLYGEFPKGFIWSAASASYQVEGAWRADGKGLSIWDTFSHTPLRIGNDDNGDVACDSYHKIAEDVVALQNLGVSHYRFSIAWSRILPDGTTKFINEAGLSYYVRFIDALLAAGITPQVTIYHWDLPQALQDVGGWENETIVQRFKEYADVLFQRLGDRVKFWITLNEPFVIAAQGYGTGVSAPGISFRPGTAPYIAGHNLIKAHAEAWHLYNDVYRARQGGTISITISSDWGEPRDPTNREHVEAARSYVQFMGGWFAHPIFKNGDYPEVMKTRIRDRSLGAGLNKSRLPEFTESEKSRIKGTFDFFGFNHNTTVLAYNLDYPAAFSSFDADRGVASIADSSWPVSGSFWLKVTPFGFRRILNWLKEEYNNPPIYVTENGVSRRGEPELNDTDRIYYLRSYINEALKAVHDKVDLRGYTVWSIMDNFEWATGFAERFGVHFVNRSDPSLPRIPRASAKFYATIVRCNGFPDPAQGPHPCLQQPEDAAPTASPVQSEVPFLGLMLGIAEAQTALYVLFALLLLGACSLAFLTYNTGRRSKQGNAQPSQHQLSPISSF", "experiment": "Xylose in blood plasma after oral 4-galactosyl-xylose versus intestinal lactase activity in unweaned rats", "format": "in vivo", "source_text": "Correlation between the excretion of xylose in urine and the presence of xylose in blood after oral administration of 4-galactosyl-xylose with intestinal lactase activity. This has been shown in unweaned rats by comparing during the growth of these animals the amount of xylose in plasma analyzed after orally administering to them 4-galactosyl-xylose with specific lactase activity evaluated postmortem in the intestinal mucous membrane. For this purpose, a group comprised of 60 12-day old unweaned rats belonging to two litters fasted for 6 hours by being separated from the mother. After this period of time passed, basal blood was extracted from each animal by means of a heart puncture and each rat was immediately administered 8 mg of 4-galactosyl-xylose diluted in 0.3 ml of distilled water by using an intraesophageal probe. 3 hours after the disaccharide was administered another blood sample was extracted. The blood plasma or supernatant fraction was obtained by centrifuging this sample and the xylose therein was titrated by calorimetric analysis with fluoroglucinol and using the plasma of the basal blood as the target. Immediately after the blood was extracted, four of the animals were sacrificed and the lactase activity in the intestinal mucous membrane was directly evaluated in the same manner as the one described in Example 1. […]"}, "intestinal lactase [2]": {"biological_target": "T1, intestinal lactase", "experiment": "Excretion of xylose in urine after oral 4-galactosyl-xylose versus intestinal lactase activity in unweaned rats", "format": "in vivo", "source_text": "Correlation between the excretion of xylose in urine and the presence of xylose in blood after oral administration of 4-galactosyl-xylose with intestinal lactase activity. This has been shown in unweaned rats comparing during the growth of these animals, the excretion of xylose in urine after orally administering to them 4-galactosyl-xylose, with lactase activity evaluated postmortem in the intestinal mucous membrane, which is known to physiologically reduce during growth. For this purpose, a group comprised of 20 12-day old unweaned rats belonging to two litters fasted for 6 hours by being separated from the mother. […] Immediately after the urine has been collected, four of the animals were sacrificed and the lactase activity in the intestinal mucous membrane was directly evaluated. […] The lactase activity in the homogenized product was measured spectrophotometrically. […] Therein one can see: 1) That the presence of xylose in urine coming from the hydrolysis of the 4-galactosyl-xylose administered is detected by the action of intestinal lactase; 2) That the rate of excretion of xylose in urine caused by oral administration of 4-galactosyl-xylose during the growth of the animals, runs parallel to the known physiological modification of intestinal lactase activity that reduces during growth. […]"}},
  "data": [
    {"smiles": "OCC1O[C@@H](O[C@@H]2COC(O)C(O)[C@H]2O)C(O)[C@@H](O)[C@H]1O", "note": "(stereo partly shown)", "values": [
      {"measurement": "linear correlation coefficient (r) between xylose in blood plasma and intestinal lactase activity", "setting": "intestinal lactase [1]; unweaned rats aged 12 to 35 days, 8 mg oral, plasma 3 hours after administration", "value": 0.98},
      {"measurement": "dose dependence of amount of xylose in plasma", "setting": "intestinal lactase [1]; unweaned rats, oral doses between 4 and 16 mg in 0.3 ml of water", "value": "increases with the increase of the amount of 4-galactosyl-xylose"},
      {"measurement": "linear correlation coefficient (r) between excretion of xylose in urine and intestinal lactase activity", "setting": "intestinal lactase [2]; unweaned rats aged 12 to 35 days, 4 mg oral, urine of 6 hours, lactase evaluated postmortem in intestinal mucous membrane", "value": 0.96},
      {"measurement": "dose dependence of excretion of xylose in urine", "setting": "intestinal lactase [2]; unweaned rats, oral doses from 2 to 32 mg in 0.3 ml of water", "value": "increases with the increase of the amount of 4-galactosyl-xylose administered"}
    ]}
  ]
}
